{"source": "the supplement of paper PMC10307832", "test_in_all_cases": "relative viability (nuclei count vs DMSO), 5 days (fraction); higher = more cells survive", "key": {"201T": {"tested_on": "201T", "in_short": "(§1)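 Relative viability is defined as nuclei in treated wells over nuclei in vehicle wells. Duplicate plates were run and medians reported. Lung cancer cell lines in 1536-well plates were dosed by pin tool one day after seeding, with one drug or with a fixed anchor-drug dose plus five library-drug doses (not always all listed) in √10 steps, and nuclei were counted after 5 days.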"}, "BEN": {"tested_on": "BEN", "in_short": "as §1"}, "EMC-BAC-2": {"tested_on": "EMC-BAC-2", "in_short": "as §1"}, "HARA": {"tested_on": "HARA", "in_short": "as §1"}, "HCC-44": {"tested_on": "HCC-44", "in_short": "as §1"}, "LOU-NH91": {"tested_on": "LOU-NH91", "in_short": "as §1"}, "NCI-H1395": {"tested_on": "NCI-H1395", "in_short": "as §1"}, "NCI-H1993": {"tested_on": "NCI-H1993", "in_short": "as §1"}, "NCI-H2023": {"tested_on": "NCI-H2023", "in_short": "as §1"}, "NCI-H2087": {"tested_on": "NCI-H2087", "in_short": "as §1"}, "NCI-H2126": {"tested_on": "NCI-H2126", "in_short": "as §1"}, "NCI-H2347": {"tested_on": "NCI-H2347", "in_short": "as §1"}, "NCI-H23": {"tested_on": "NCI-H23", "in_short": "as §1"}, "NCI-H3122": {"tested_on": "NCI-H3122", "in_short": "as §1"}, "NCI-H441": {"tested_on": "NCI-H441", "in_short": "as §1"}, "NCI-H596": {"tested_on": "NCI-H596", "in_short": "as §1"}, "NCI-H647": {"tested_on": "NCI-H647", "in_short": "as §1"}, "NCI-H727": {"tested_on": "NCI-H727", "in_short": "as §1"}, "NCI-H838": {"tested_on": "NCI-H838", "in_short": "as §1"}}}
{"molecule": "CC(=O)O[C@@]12CO[C@@H]1C[C@H](O)[C@@]1(C)C(=O)[C@H](O)C3=C(C)[C@@H](OC(=O)[C@H](O)[C@@H](NC(=O)OC(C)(C)C)c4ccccc4)C[C@@](O)([C@@H](OC(=O)c4ccccc4)[C@H]21)C3(C)C", "note": "[Docetaxel] + CC1(C)CCC(c2ccc(Cl)cc2)=C(CN2CCN(c3ccc(C(=O)NS(=O)(=O)c4ccc(N[C@H](CCN5CCOCC5)CSc5ccccc5)c(S(=O)(=O)C(F)(F)F)c4)cc3)CC2)C1 [Navitoclax] (partner 0.5 µM)", "values": [{"measurement": "relative viability", "setting": "201T; first compound 0.0002 µM", "value": 1.18}, {"measurement": "relative viability", "setting": "201T; first compound 0.000632 µM", "value": 1.21}, {"measurement": "relative viability", "setting": "201T; first compound 0.002 µM", "value": 1.06}, {"measurement": "relative viability", "setting": "201T; first compound 0.006325 µM", "value": 0.507}, {"measurement": "relative viability", "setting": "201T; first compound 0.02 µM", "value": 0.347}, {"measurement": "relative viability", "setting": "BEN; first compound 0.0002 µM", "value": 0.0647}, {"measurement": "relative viability", "setting": "BEN; first compound 0.000632 µM", "value": 0.25}, {"measurement": "relative viability", "setting": "BEN; first compound 0.002 µM", "value": 0.0618}, {"measurement": "relative viability", "setting": "BEN; first compound 0.006325 µM", "value": 0.0423}, {"measurement": "relative viability", "setting": "BEN; first compound 0.02 µM", "value": 0.0454}, {"measurement": "relative viability", "setting": "EMC-BAC-2; first compound 0.0002 µM", "value": 1.14}, {"measurement": "relative viability", "setting": "EMC-BAC-2; first compound 0.000632 µM", "value": 1.11}, {"measurement": "relative viability", "setting": "EMC-BAC-2; first compound 0.002 µM", "value": 0.735}, {"measurement": "relative viability", "setting": "EMC-BAC-2; first compound 0.006325 µM", "value": 0.272}, {"measurement": "relative viability", "setting": "EMC-BAC-2; first compound 0.02 µM", "value": 0.148}, {"measurement": "relative viability", "setting": "HARA; first compound 0.0002 µM", "value": 1.08}, {"measurement": "relative viability", "setting": "HARA; first compound 0.000632 µM", "value": 0.912}, {"measurement": "relative viability", "setting": "HARA; first compound 0.002 µM", "value": 0.156}, {"measurement": "relative viability", "setting": "HARA; first compound 0.006325 µM", "value": 0.107}, {"measurement": "relative viability", "setting": "HARA; first compound 0.02 µM", "value": 0.0621}, {"measurement": "relative viability", "setting": "HCC-44; first compound 0.0002 µM", "value": 0.962}, {"measurement": "relative viability", "setting": "HCC-44; first compound 0.000632 µM", "value": 0.934}, {"measurement": "relative viability", "setting": "HCC-44; first compound 0.002 µM", "value": 0.362}, {"measurement": "relative viability", "setting": "HCC-44; first compound 0.006325 µM", "value": 0.242}, {"measurement": "relative viability", "setting": "HCC-44; first compound 0.02 µM", "value": 0.149}, {"measurement": "relative viability", "setting": "LOU-NH91; first compound 0.0002 µM", "value": 0.784}, {"measurement": "relative viability", "setting": "LOU-NH91; first compound 0.000632 µM", "value": 0.512}, {"measurement": "relative viability", "setting": "LOU-NH91; first compound 0.002 µM", "value": 0.332}, {"measurement": "relative viability", "setting": "LOU-NH91; first compound 0.006325 µM", "value": 0.279}, {"measurement": "relative viability", "setting": "LOU-NH91; first compound 0.02 µM", "value": 0.222}, {"measurement": "relative viability", "setting": "NCI-H1395; first compound 0.0002 µM", "value": 1.15}, {"measurement": "relative viability", "setting": "NCI-H1395; first compound 0.000632 µM", "value": 1.1}, {"measurement": "relative viability", "setting": "NCI-H1395; first compound 0.002 µM", "value": 0.895}, {"measurement": "relative viability", "setting": "NCI-H1395; first compound 0.006325 µM", "value": 0.394}, {"measurement": "relative viability", "setting": "NCI-H1395; first compound 0.02 µM", "value": 0.357}, {"measurement": "relative viability", "setting": "NCI-H1993; first compound 0.0002 µM", "value": 0.945}, {"measurement": "relative viability", "setting": "NCI-H1993; first compound 0.000632 µM", "value": 0.873}, {"measurement": "relative viability", "setting": "NCI-H1993; first compound 0.002 µM", "value": 0.703}, {"measurement": "relative viability", "setting": "NCI-H1993; first compound 0.006325 µM", "value": 0.554}, {"measurement": "relative viability", "setting": "NCI-H1993; first compound 0.02 µM", "value": 0.436}, {"measurement": "relative viability", "setting": "NCI-H2023; first compound 0.0002 µM", "value": 1.01}, {"measurement": "relative viability", "setting": "NCI-H2023; first compound 0.000632 µM", "value": 0.995}, {"measurement": "relative viability", "setting": "NCI-H2023; first compound 0.002 µM", "value": 0.176}, {"measurement": "relative viability", "setting": "NCI-H2023; first compound 0.006325 µM", "value": 0.168}, {"measurement": "relative viability", "setting": "NCI-H2023; first compound 0.02 µM", "value": 0.0908}, {"measurement": "relative viability", "setting": "NCI-H2087; first compound 0.0002 µM", "value": 0.964}, {"measurement": "relative viability", "setting": "NCI-H2087; first compound 0.000632 µM", "value": 0.446}, {"measurement": "relative viability", "setting": "NCI-H2087; first compound 0.002 µM", "value": 0.276}, {"measurement": "relative viability", "setting": "NCI-H2087; first compound 0.006325 µM", "value": 0.154}, {"measurement": "relative viability", "setting": "NCI-H2087; first compound 0.02 µM", "value": 0.129}, {"measurement": "relative viability", "setting": "NCI-H2126; first compound 0.0002 µM", "value": 0.873}, {"measurement": "relative viability", "setting": "NCI-H2126; first compound 0.000632 µM", "value": 0.954}, {"measurement": "relative viability", "setting": "NCI-H2126; first compound 0.002 µM", "value": 0.735}, {"measurement": "relative viability", "setting": "NCI-H2126; first compound 0.006325 µM", "value": 0.334}, {"measurement": "relative viability", "setting": "NCI-H2126; first compound 0.02 µM", "value": 0.227}, {"measurement": "relative viability", "setting": "NCI-H2347; first compound 0.0002 µM", "value": 0.844}, {"measurement": "relative viability", "setting": "NCI-H2347; first compound 0.000632 µM", "value": 0.653}, {"measurement": "relative viability", "setting": "NCI-H2347; first compound 0.002 µM", "value": 0.408}, {"measurement": "relative viability", "setting": "NCI-H2347; first compound 0.006325 µM", "value": 0.359}, {"measurement": "relative viability", "setting": "NCI-H2347; first compound 0.02 µM", "value": 0.258}, {"measurement": "relative viability", "setting": "NCI-H23; first compound 0.0002 µM", "value": 0.876}, {"measurement": "relative viability", "setting": "NCI-H23; first compound 0.000632 µM", "value": 0.741}, {"measurement": "relative viability", "setting": "NCI-H23; first compound 0.002 µM", "value": 0.514}, {"measurement": "relative viability", "setting": "NCI-H23; first compound 0.006325 µM", "value": 0.242}, {"measurement": "relative viability", "setting": "NCI-H3122; first compound 0.0002 µM", "value": 0.996}, {"measurement": "relative viability", "setting": "NCI-H3122; first compound 0.000632 µM", "value": 1}, {"measurement": "relative viability", "setting": "NCI-H3122; first compound 0.002 µM", "value": 0.895}, {"measurement": "relative viability", "setting": "NCI-H3122; first compound 0.006325 µM", "value": 0.376}, {"measurement": "relative viability", "setting": "NCI-H3122; first compound 0.02 µM", "value": 0.168}, {"measurement": "relative viability", "setting": "NCI-H441; first compound 0.0002 µM", "value": 0.486}, {"measurement": "relative viability", "setting": "NCI-H441; first compound 0.000632 µM", "value": 0.275}, {"measurement": "relative viability", "setting": "NCI-H441; first compound 0.002 µM", "value": 0.204}, {"measurement": "relative viability", "setting": "NCI-H441; first compound 0.006325 µM", "value": 0.23}, {"measurement": "relative viability", "setting": "NCI-H441; first compound 0.02 µM", "value": 0.13}, {"measurement": "relative viability", "setting": "NCI-H596; first compound 0.0002 µM", "value": 0.882}, {"measurement": "relative viability", "setting": "NCI-H596; first compound 0.000632 µM", "value": 0.799}, {"measurement": "relative viability", "setting": "NCI-H596; first compound 0.002 µM", "value": 0.565}, {"measurement": "relative viability", "setting": "NCI-H596; first compound 0.006325 µM", "value": 0.477}, {"measurement": "relative viability", "setting": "NCI-H596; first compound 0.02 µM", "value": 0.208}, {"measurement": "relative viability", "setting": "NCI-H647; first compound 0.0002 µM", "value": 1.21}, {"measurement": "relative viability", "setting": "NCI-H647; first compound 0.000632 µM", "value": 0.597}, {"measurement": "relative viability", "setting": "NCI-H647; first compound 0.002 µM", "value": 0.245}, {"measurement": "relative viability", "setting": "NCI-H647; first compound 0.006325 µM", "value": 0.125}, {"measurement": "relative viability", "setting": "NCI-H647; first compound 0.02 µM", "value": 0.0526}, {"measurement": "relative viability", "setting": "NCI-H727; first compound 0.0002 µM", "value": 0.488}, {"measurement": "relative viability", "setting": "NCI-H727; first compound 0.000632 µM", "value": 0.442}, {"measurement": "relative viability", "setting": "NCI-H727; first compound 0.002 µM", "value": 0.308}, {"measurement": "relative viability", "setting": "NCI-H727; first compound 0.02 µM", "value": 0.149}, {"measurement": "relative viability", "setting": "NCI-H838; first compound 0.0002 µM", "value": 1.15}, {"measurement": "relative viability", "setting": "NCI-H838; first compound 0.000632 µM", "value": 1.22}, {"measurement": "relative viability", "setting": "NCI-H838; first compound 0.002 µM", "value": 0.29}, {"measurement": "relative viability", "setting": "NCI-H838; first compound 0.006325 µM", "value": 0.176}, {"measurement": "relative viability", "setting": "NCI-H838; first compound 0.02 µM", "value": 0.135}]}
